Reference: US12685735B2 (Foghorn Therapeutics Inc., priority 2020, dated 2026)
Like-named read-outs stand apart in the source and are kept apart here.

Legend:
BRM = BRM (Homo sapiens, UniProt P51531); assay: ATPase catalytic activity assay of BRM (ADP-Glo); format: biochemical; settings: for IC50: read-out: BRM IC50 (μM)*
Outline: (§1)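 Two room-temperature incubations follow the reaction: 40 min to eliminate unused ATP, then 60 min to turn ADP into ATP driving luciferase light output. Activity is read as luminescence proportional to ADP formed.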

BRG-1 = BRG-1 (Homo sapiens, UniProt P51532); assay: ATPase catalytic activity assay of BRG-1 (ADP-Glo); format: biochemical; settings: ATPase catalytic activity, ADP-Glo; for IC50: read-out: BRG1 IC50 (μM)*; for Emax: read-out: BRG1 Max % Inhibition
Sequence of BRG-1 (P51532 whole entry): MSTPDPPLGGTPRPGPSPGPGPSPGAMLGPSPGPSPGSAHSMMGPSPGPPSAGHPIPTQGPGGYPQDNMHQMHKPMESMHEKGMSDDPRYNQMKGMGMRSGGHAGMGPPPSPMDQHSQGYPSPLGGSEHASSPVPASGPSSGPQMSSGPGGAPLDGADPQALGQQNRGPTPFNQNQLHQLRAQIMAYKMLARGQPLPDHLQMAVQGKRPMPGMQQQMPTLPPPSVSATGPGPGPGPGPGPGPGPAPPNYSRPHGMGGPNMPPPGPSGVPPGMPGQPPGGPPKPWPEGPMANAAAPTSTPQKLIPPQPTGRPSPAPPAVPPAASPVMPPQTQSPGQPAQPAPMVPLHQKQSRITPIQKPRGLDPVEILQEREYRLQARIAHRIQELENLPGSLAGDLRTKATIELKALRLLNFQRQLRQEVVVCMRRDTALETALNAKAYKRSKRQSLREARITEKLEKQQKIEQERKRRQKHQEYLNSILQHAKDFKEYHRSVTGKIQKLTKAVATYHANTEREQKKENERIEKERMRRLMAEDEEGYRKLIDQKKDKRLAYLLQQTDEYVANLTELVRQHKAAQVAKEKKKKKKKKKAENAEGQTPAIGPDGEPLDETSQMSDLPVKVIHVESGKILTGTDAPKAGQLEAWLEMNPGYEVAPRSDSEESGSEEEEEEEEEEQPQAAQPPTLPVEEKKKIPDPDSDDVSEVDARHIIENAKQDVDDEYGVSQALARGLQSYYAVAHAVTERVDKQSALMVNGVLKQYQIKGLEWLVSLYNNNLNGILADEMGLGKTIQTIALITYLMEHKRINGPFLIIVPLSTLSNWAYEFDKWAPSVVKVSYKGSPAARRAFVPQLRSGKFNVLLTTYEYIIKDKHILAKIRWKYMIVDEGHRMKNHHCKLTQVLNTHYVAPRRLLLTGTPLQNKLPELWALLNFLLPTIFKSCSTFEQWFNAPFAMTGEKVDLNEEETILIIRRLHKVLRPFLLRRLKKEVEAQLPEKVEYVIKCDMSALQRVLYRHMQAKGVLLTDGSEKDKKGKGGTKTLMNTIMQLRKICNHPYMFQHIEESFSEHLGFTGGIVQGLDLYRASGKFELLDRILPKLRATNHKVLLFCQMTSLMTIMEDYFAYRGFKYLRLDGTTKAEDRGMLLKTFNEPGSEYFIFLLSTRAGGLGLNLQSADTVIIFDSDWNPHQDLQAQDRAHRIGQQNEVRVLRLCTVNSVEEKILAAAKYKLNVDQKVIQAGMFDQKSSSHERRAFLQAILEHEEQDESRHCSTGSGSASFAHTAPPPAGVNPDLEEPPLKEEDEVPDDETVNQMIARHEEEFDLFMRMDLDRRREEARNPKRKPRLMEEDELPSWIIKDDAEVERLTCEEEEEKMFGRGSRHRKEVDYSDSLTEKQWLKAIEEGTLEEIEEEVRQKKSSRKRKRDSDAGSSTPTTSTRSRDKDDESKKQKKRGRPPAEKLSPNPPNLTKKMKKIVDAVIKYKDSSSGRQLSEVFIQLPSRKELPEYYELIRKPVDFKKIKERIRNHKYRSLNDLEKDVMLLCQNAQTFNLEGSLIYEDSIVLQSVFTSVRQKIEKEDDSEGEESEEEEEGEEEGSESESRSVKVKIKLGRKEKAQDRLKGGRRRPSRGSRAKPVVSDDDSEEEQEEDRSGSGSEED
Outline: as §1

Sequence of BRM (P51531 whole entry): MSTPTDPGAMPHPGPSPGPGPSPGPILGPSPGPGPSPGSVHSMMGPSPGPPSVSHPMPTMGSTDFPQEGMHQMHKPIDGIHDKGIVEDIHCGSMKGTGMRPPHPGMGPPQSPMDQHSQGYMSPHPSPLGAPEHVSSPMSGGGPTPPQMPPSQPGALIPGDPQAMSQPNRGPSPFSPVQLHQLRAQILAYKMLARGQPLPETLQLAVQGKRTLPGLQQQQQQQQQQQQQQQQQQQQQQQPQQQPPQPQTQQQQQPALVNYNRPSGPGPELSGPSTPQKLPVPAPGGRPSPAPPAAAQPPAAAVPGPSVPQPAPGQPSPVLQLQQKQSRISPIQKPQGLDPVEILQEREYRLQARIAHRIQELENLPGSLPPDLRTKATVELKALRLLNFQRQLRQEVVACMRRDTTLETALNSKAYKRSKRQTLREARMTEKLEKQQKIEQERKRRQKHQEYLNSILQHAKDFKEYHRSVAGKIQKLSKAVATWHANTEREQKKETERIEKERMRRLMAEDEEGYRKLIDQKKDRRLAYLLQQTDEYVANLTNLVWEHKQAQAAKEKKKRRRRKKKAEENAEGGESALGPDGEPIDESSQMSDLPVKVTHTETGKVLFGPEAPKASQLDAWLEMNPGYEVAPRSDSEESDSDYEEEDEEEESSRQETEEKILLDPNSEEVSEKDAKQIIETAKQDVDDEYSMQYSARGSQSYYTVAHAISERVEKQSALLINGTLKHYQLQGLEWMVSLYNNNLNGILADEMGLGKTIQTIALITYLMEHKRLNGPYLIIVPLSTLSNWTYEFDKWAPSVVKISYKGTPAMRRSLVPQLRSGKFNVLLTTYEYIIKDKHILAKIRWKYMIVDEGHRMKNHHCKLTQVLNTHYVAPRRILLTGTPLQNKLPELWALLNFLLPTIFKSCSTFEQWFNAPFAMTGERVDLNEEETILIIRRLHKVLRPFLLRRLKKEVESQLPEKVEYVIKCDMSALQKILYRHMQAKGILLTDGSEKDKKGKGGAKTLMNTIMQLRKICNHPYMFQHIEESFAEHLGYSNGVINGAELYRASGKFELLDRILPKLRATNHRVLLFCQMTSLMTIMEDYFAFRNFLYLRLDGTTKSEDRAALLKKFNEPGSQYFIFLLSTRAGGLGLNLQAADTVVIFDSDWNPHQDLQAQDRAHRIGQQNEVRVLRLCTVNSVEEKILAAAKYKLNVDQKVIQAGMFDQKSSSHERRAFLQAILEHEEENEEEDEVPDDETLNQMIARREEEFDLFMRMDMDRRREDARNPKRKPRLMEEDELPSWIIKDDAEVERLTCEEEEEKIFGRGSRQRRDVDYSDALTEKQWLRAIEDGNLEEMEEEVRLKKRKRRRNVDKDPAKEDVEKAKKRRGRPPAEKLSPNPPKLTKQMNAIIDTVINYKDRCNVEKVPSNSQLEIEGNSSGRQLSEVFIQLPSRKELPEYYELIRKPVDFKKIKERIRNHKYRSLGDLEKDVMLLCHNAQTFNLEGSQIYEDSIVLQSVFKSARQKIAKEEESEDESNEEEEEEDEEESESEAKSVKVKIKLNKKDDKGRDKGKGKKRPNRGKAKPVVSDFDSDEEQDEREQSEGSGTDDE

| SMILES | BRM Max % Inhibition (BRM) [%] | IC50 (BRM) [µM] | IC50 (BRG-1) [µM] | Emax (BRG-1) [%] | BRM Max % Inhibition (BRM; 30 nM BRM, 400 μM ATP) [%] | IC50 (BRM; 30 nM BRM, 400 μM ATP) [µM] | IC50 (BRG-1; 30 nM BRG-1, 400 μM ATP) [µM] | Emax (BRG-1; 30 nM BRG-1, 400 μM ATP) [%] | BRG1 Max % Inhibition (BRG-1) [%] |
| --- | --- | --- | --- | --- | --- | --- | --- | --- | --- |
| C[C@@H]1CN(c2cccc(-c3csc(NC(=O)CNC(=O)c4cccc(C(C)(C)C)c4)n3)c2)C[C@H](C)O1 [Compound 217, 3-tert-butyl-N-[2-[[4-[3-[(cis)-2,6-dimethylmorpholin-4-yl]phenyl]thiazol-2-yl]amino]-2-oxo-ethyl]benzamide] | >95 | < 0.1 | 0.1 to 1 | > 90 |  |  |  |  |  |
| CC1(C#N)CCOc2ccc(C(=O)NCC(=O)Nc3nc(-c4cccc(C5CC5)n4)cs3)cc21 (stereo in doubt) [Compound 439, (S)-4-cyano-N-(2-((4-(6-cyclopropylpyridin-2-yl)thiazol-2-yl)amino)-2-oxoethyl)-4-methylchromane-6-carboxamide] |  |  |  |  | >95 | 0.1 to 1 | 1 to 5 | > 95 |  |
| C[C@@H]1CN(c2cccc(-c3csc(NC(=O)CNC(=O)c4cccc([C@@H]5COC[C@H]5O)c4)n3)c2)C[C@H](C)O1 [Compound 157, N-(2-((4-(3-((cis)-2,6-dimethylmorpholino)phenyl)thiazol-2-yl)amino)-2-oxoethyl)-3-((3R,4S)-4-hydroxytetrahydrofuran-3-yl)benzamide] | >70 | 0.1 to 1 | > 5 | > 30 |  |  |  |  |  |
| Cc1cc(-c2cccc(-c3csc(NC(=O)CNC(=O)c4cccc(C(C)(C)CN)c4)n3)c2)ncn1 [Compound 98] | >95 | 0.1 to 1 | 1 to 5 | > 70 |  |  |  |  |  |
| COC(=O)N1CCC[C@@H](c2csc(NC(=O)CNC(=O)c3ccc4c(c3)[C@@](C)(C#N)COC4)n2)C1 (stereo in doubt) [Compound 354, methyl (R)-3-(2-(2-((S)-4-cyano-4-methylisochromane-6-carboxamido)acetamido)thiazol-4-yl)piperidine-1-carboxylate] | >95 | 0.1 to 1 | 0.1 to 1 | > 95 |  |  |  |  |  |
| CC1(C#N)CCc2ccc(C(=O)NCC(=O)Nc3nc(-c4cccc(-c5ccncc5)c4)cs3)cc21 (single isomer, unassigned) [Compound 88] | >50 | 0.1 to 1 | > 5 |  |  |  |  |  | >30 |
| CC(C)(CO)c1cccc(C(=O)NCC(=O)Nc2nc(-c3cccc(C#N)c3)cs2)c1 [Compound 106] | >80 | 1 to 5 | 1 to 5 | > 30 |  |  |  |  |  |
| C[C@@H]1CN(c2cccc(-c3csc(NC(=O)CNC(=O)c4cccc([C@]5(C)C[C@@H](O)C5)c4)n3)c2)C[C@H](C)O1 [Compound 392, N-(2-((4-(3-((cis)-2,6-dimethylmorpholino)phenyl)thiazol-2-yl)amino)-2-oxoethyl)-3-((1r,3r)-3-hydroxy-1-methylcyclobutyl)benzamide] | >90 | 0.1 to 1 | > 5 | > 90 |  |  |  |  |  |
| CC1(c2cccc(C(=O)NCC(=O)Nc3nc(-c4cccc(-c5ccncc5)c4)cs3)c2)CCNC1=O (centres unmarked) [Compound 82, 3-(3-methyl-2-oxopyrrolidin-3-yl)-N-(2-oxo-2-((4-(3-(pyridin-4-yl)phenyl)thiazol-2-yl)amino)ethyl)benzamide] | >95 | 0.1 to 1 | 0.1 to 1 | > 90 |  |  |  |  |  |
| C[C@@H]1CN(c2cccc(-c3csc(NC(=O)CNC(=O)c4ccc5c(c4)C(C)(C#N)CNC5)n3)c2)C[C@H](C)O1 (stereo in doubt) [Compound 287, (S)-4-cyano-N-(2-((4-(3-((cis)-2,6-dimethylmorpholino)phenyl)thiazol-2-yl)amino)-2-oxoethyl)-4-methyl-1,2,3,4-tetrahydroisoquinoline-6-carboxamide] | >95 | < 0.1 | < 0.1 | > 95 |  |  |  |  |  |
| CC(C)(N)c1cccc(C(=O)NCC(=O)Nc2nc(-c3cccc(-c4ccncc4)c3)cs2)c1 [Compound 86, 3-(2-aminopropan-2-yl)-N-(2-oxo-2-((4-(3-(pyridin-4-yl)phenyl)thiazol-2-yl)amino)ethyl)benzamide] | >80 | > 5 | 1 to 5 | > 60 |  |  |  |  |  |
| COc1cc(-c2cccc(-c3csc(NC(=O)CNC(=O)c4cccc(C(C)(C)CN)c4)n3)c2)ccn1 [Compound 49, 3-(1-amino-2-methylpropan-2-yl)-N-(2-((4-(3-(2-methoxypyridin-4-yl)phenyl)thiazol-2-yl)amino)-2-oxoethyl)benzamide] | >80 | 0.1 to 1 | > 5 | > 60 |  |  |  |  |  |
| Cc1ccc(C(=O)NCC(=O)Nc2nc(-c3cccc(-c4ccn(C)n4)c3)cs2)cc1C(C)(C)CN [Compound 70, 3-(1-amino-2-methylpropan-2-yl)-4-methyl-N-(2-((4-(3-(1-methyl-1H-pyrazol-3-yl)phenyl)thiazol-2-yl)amino)-2-oxoethyl)benzamide] | >95 | 0.1 to 1 | > 5 | > 50 |  |  |  |  |  |

The next lines start with the values.

| BRM Max % Inhibition (BRM) [%] | IC50 (BRM) [µM] | IC50 (BRG-1) [µM] | Emax (BRG-1) [%] | BRM Max % Inhibition (BRM; 30 nM BRM, 400 μM ATP) [%] | IC50 (BRM; 30 nM BRM, 400 μM ATP) [µM] | IC50 (BRG-1; 30 nM BRG-1, 400 μM ATP) [µM] | Emax (BRG-1; 30 nM BRG-1, 400 μM ATP) [%] | BRG1 Max % Inhibition (BRG-1) [%] | SMILES |
| --- | --- | --- | --- | --- | --- | --- | --- | --- | --- |
| >95 | 0.1 to 1 | > 5 | > 95 |  |  |  |  |  | C[C@@H]1CN(c2cccc(-c3csc(NC(=O)CNC(=O)c4cccc([C@]5(C)C[C@H](O)C5)c4)n3)c2)C[C@H](C)O1 [Compound 393, N-(2-((4-(3-((cis)-2,6-dimethylmorpholino)phenyl)thiazol-2-yl)amino)-2-oxoethyl)-3-((1s,3s)-3-hydroxy-1-methylcyclobutyl)benzamide] |
| >95 | < 0.1 | 0.1 to 1 | > 90 |  |  |  |  |  | Cc1cc(-c2cccc(-c3csc(NC(=O)CNC(=O)c4cccc(S(=O)(=O)C(C)C)c4)n3)c2)ncn1 [Compound 127, 3-isopropylsulfonyl-N-[2-[[4-[3-(6-methylpyrimidin-4-yl)phenyl]thiazol-2-yl]amino]-2-oxoethyl] benzamide] |
| >60 | 1 to 5 | > 5 | > 30 |  |  |  |  |  | C[C@@H]1CN(c2cccc(-c3csc(NC(=O)CNC(=O)c4cccc5c4OCC[C@]5(C)CO)n3)c2)C[C@H](C)O1 [Compound 252, (S)-N-(2-((4-(3-((cis)-2,6-dimethylmorpholino)phenyl)thiazol-2-yl)amino)-2-oxoethyl)-4-(hydroxymethyl)-4-methylchroman-8-carboxamide] |
| >95 | 0.1 to 1 | 0.1 to 1 | > 80 |  |  |  |  |  | CSCC[C@H](NC(=O)c1cccc(C(C)(C)CN)c1)C(=O)Nc1nc(-c2cccc(-c3ccncc3)c2)cs1 [Compound 48, (S)-3-(1-amino-2-methylpropan-2-yl)-N-(4-(methylthio)-1-oxo-1-((4-(3-(pyridin-4-yl)phenyl)thiazol-2-yl)amino)butan-2-yl)benzamide] |
| >95 | < 0.1 | < 0.1 |  |  |  |  |  | >95 | CC1(C#N)CCc2ccc(C(=O)NCC(=O)Nc3nc(-c4cccc(-c5ccncc5)c4)cs3)cc21 (single isomer, unassigned) [Compound 103] |
| >95 | 0.1 to 1 | 0.1 to 1 | > 90 |  |  |  |  |  | COC[C@H](NC(=O)c1cccc(C(C)(C)CN)c1)C(=O)Nc1nc(-c2cccc(-c3ccnc(C)c3)c2)cs1 [Compound 68, (S)-3-(1-amino-2-methylpropan-2-yl)-N-(3-methoxy-1-((4-(3-(2-methylpyridin-4-yl)phenyl)thiazol-2-yl)amino)-1-oxopropan-2-yl)benzamide] |
| >80 | 0.1 to 1 | > 5 | > 60 |  |  |  |  |  | C[C@@H]1CN(c2cccc(-c3csc(NC(=O)CNC(=O)c4cnc5c(c4)[C@](C)(CO)CC5)n3)c2)C[C@H](C)O1 [Compound 143, (R)-N-(2-((4-(3-((cis)-2,6-dimethylmorpholino)phenyl)thiazol-2-yl)amino)-2-oxoethyl)-5-(hydroxymethyl)-5-methyl-6,7-dihydro-5H-cyclopenta[b]pyridine-3-carboxamide] |
| >95 | 0.1 to 1 | > 5 | > 50 |  |  |  |  |  | C[C@@H]1CN(c2cccc(-c3csc(NC(=O)CNC(=O)c4ccc5c(c4)[C@@H]([C@H](C)O)CC5)n3)n2)C[C@H](C)O1 [Compound 140, (3S)-N-[2-[[4-[6-[(cis)-2,6-dimethylmorpholin-4-yl]-2-pyridyl]thiazol-2-yl]amino]-2-oxo-ethyl]-3-[(1S)-1-hydroxyethyl]indane-5-carboxamide] |
| >95 | < 0.1 | < 0.1 | > 95 |  |  |  |  |  | COc1cc(F)cc(-c2csc(NC(=O)CNC(=O)c3ccc4c(c3)[C@](C)(F)COC4)n2)c1 [Compound 337, (S)-4-fluoro-N-(2-((4-(3-fluoro-5-methoxyphenyl)thiazol-2-yl)amino)-2-oxoethyl)-4-methylisochromane-6-carboxamide] |
| >70 | 1 to 5 | > 5 | > 30 |  |  |  |  |  | CCc1ccc(C(=O)NCC(=O)Nc2nc(-c3cccc(-c4ccn(C)n4)c3)cs2)cc1C(C)(C)CN [Compound 71, 3-(1-amino-2-methylpropan-2-yl)-4-ethyl-N-(2-((4-(3-(1-methyl-1H-pyrazol-3-yl)phenyl)thiazol-2-yl)amino)-2-oxoethyl)benzamide] |
